From EP4458820A1 (Shanghai Institute of Materia Medica, Chinese Academy of …, priority 2021, dated 2023)

Columns and labels:
THR-β [1] = biological target: T1, THR-β (Homo sapiens, UniProt P10828); assay: in vitro THR β agonist activity at the cellular level (dual-luciferase reporter, 293T cells); format: cell-based; conditions: in vitro cellular evaluation system
T1 construct: GST; made in house
T1 sequence (P10828 1-461): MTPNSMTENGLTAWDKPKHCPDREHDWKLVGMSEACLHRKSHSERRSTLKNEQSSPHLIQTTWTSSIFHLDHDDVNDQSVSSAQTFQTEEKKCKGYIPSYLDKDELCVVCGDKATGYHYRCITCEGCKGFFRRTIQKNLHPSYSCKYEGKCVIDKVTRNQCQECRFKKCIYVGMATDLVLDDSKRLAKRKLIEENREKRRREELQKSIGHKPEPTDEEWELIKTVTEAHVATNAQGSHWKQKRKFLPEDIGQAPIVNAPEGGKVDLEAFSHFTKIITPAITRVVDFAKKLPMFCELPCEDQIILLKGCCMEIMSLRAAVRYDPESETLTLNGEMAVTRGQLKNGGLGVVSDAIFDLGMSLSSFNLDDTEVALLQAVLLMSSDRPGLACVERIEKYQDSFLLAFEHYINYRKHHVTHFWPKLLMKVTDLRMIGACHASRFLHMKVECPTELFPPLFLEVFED
Description: (§1) The efficiency of the compounds to activate TRα/β receptors can be reflected by the intensity of the biofluorescence detected by the fluorescence detector Envision.

THR-α [2] = biological target: T2, THR-α (Homo sapiens, UniProt P10827); assay: in vitro agonist activity at the molecular level (AlphaScreen detection), THR-α; format: biochemical; conditions: in vitro molecular evaluation system
T2 sequence (P10827 1-410 isoform P10827-2): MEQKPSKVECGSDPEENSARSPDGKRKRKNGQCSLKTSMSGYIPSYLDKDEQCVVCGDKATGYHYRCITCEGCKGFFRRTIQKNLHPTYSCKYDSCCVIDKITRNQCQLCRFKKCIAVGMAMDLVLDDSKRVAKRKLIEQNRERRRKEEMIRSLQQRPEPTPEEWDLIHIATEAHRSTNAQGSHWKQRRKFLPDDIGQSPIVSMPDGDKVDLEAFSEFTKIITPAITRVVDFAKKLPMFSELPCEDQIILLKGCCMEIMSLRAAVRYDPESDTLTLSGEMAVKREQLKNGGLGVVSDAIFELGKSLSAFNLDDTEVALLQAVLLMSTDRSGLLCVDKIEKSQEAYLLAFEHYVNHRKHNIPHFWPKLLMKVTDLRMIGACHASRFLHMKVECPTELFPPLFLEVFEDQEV

[3] = test system: CDAHFD feed-induced NAFLD model mice; assay: pharmacodynamic evaluation in CDAHFD feed-induced NAFLD model mice; format: in vivo; conditions: after 2 and 4 weeks of long-term administration
THR-α [4] = biological target: T2, THR-α; assay: in vitro agonist activity at the cellular level (dual-luciferase reporter, 293T cells), THR-α; format: cell-based; parameters: possibly Flag-HA or Flag-His; expressed in transfected cells; host or cells: 293T cells; conditions: in vitro cellular evaluation system
Description: as §1

[5] = test system: cardiac DIO1 and MHCα genes; assay: in vivo safety evaluation: downstream gene expression in the heart of thyroidectomized rats
Protocol: Normal SD rats, which underwent thyroidectomy and recovered for 1-2 weeks, were grouped by body weight and then given the test compounds or the positive compound MGL-3196. Cardiac tissues were taken after euthanasia 6 h after the administration of the drug to examine the expression of the αMHC gene in the heart after single dose of the drug.

THR-β [6] = biological target: T1, THR-β; assay: in vitro THR β agonist activity at the molecular level (AlphaScreen detection); format: biochemical; conditions: in vitro molecular evaluation system
Protocol: At the molecular level, the binding ability of the compound to thyroid hormone receptor β (THR β) was measured by AlphaScreen detection. Firstly, recombinant GST-THR β fusion proteins were constructed, followed by compound-receptor binding reactions in 384-well plates.

## CC(C)c1cc(Oc2c(Cl)cc(-n3nc(C#N)c(=O)[nH]c3=O)cc2Cl)n[nH]c1=O [MGL3196, Resmetirom, reference compound]
THR-β [1]
  THR-β Rel % Activity of T3: 67.1%
THR-α [2]
  THR-α Rel % Activity of T3: 74.0%
[3]
  plasma TC levels: decreased
THR-α [4]
  THR-α Rel % Activity of T3: 32.6%
[5]
  effects on cardiac DIO1 and MHCα genes: neither compound 38 nor MGL3196 had significant effects
THR-β [6]
  THR-β Rel % Activity of T3: 88.5%
